Laboratory results taken from ChEMBL document CHEMBL3046575, “Synthesis and studies on antidepressant activity of 2,4,6-trihydroxychalcone derivatives” (2012).
Active and inactive are the calls of the source. No cut-off for these calls is given here.

tested on: Mus musculus; assay: Antidepressant activity in Mus musculus (mouse) assessed as reduction in immobility time at 10 to 40 mg/kg, ip administered 30 min before test by tail suspension test; type: functional, organism-based; conditions: not given

| Compound | Activity |
| --- | --- |
| O=C(/C=C/c1ccccc1Br)c1c(O)cc(O)cc1O | Active |

tested on: Mus musculus; assay: Antidepressant activity in Mus musculus Kunming (mouse) assessed as reduction in immobility time at 10 to 40 mg/kg, ip administered 30 min before test by forced swim test; type: functional, organism-based; conditions: not given

| Compound | Activity |
| --- | --- |
| O=C(/C=C/c1ccccc1Br)c1c(O)cc(O)cc1O | Active |

tested on: Mus musculus; assay: Antidepressant activity in Mus musculus Kunming (mouse) assessed as reduction in immobility time at 10 mg/kg, ip administered 30 min before test by forced swim test relative to control; type: functional; design: scale not given: the % may be the effect or the level left; conditions: route intraperitoneal

| Compound | Activity [%] |
| --- | --- |
| O=C(/C=C/c1ccc(Cl)cc1)c1c(O)cc(O)cc1O [4-CHLORO-2',4',6'-TRIHYDROXYCHALCONE] | 27.07 |
| COc1ccc(/C=C/C(=O)c2c(O)cc(O)cc2O)cc1OC | 17.57 |
| O=C(/C=C/c1ccccc1F)c1c(O)cc(O)cc1O | 33.55 |
| O=C(/C=C/c1ccc(O)cc1)c1c(O)cc(O)cc1O [4,2',4',6'-TETRAHYDROXYCHALCONE] | 28.51 |
| COc1ccc(/C=C/C(=O)c2c(O)cc(O)cc2O)cc1 [4-METHOXYL-2',4',6'-TRIHYDROXYCHALCONE] | 11.09 |
| COc1cc(/C=C/C(=O)c2c(O)cc(O)cc2O)ccc1O | 22.89 |
| O=C(/C=C/c1ccc(F)cc1)c1c(O)cc(O)cc1O [4-FLUORO-2',4',6'-TRIHYDROXYCHALCONE] | 4.39 |
| CNCCC(Oc1ccc(C(F)(F)F)cc1)c1ccccc1 (stereo not given) [FLUOXETINE] | 58.68 |
| Cc1ccc(/C=C/C(=O)c2c(O)cc(O)cc2O)cc1 | 17.35 |
| O=C(/C=C/c1ccccc1Cl)c1c(O)cc(O)cc1O | 18.72 |
| O=C(/C=C/c1cccc(Cl)c1)c1c(O)cc(O)cc1O | 27.57 |
| O=C(/C=C/c1ccc(Br)cc1)c1c(O)cc(O)cc1O [4-BROMO-2',4',6'-TRIHYDROXYCHALCONE] | 19.29 |
| O=C(/C=C/c1ccccc1Br)c1c(O)cc(O)cc1O | 50.04 |
| O=C(/C=C/c1cccc(F)c1)c1c(O)cc(O)cc1O | 17.21 |
| Cc1ccc(/C=C/C(=O)c2c(O)cc(O)cc2O)cc1C | 13.31 |
| O=C(/C=C/c1ccc(O)c(O)c1)c1c(O)cc(O)cc1O [3,4,2',4',6'-PENTAHYDROXYCHALCONE] | 29.09 |
| O=C(/C=C/c1cccc(Br)c1)c1c(O)cc(O)cc1O | 26.64 |
| O=C(/C=C/c1ccc(Cl)cc1Cl)c1c(O)cc(O)cc1O | 27.43 |
